Measurements reported in article PMC5561075, “Identification and Characterization of a Bacterial Homolog of Chloride Intracellular Channel (CLIC) Protein” (Scientific Reports, 2017).

Molecular target: Ec SspA (Escherichia coli, UniProt P0ACA3)
Experiment: single-channel recording in planar lipid bilayers
Assay type: biochemical
Conditions: channel blocker, POPE:POPS:cholesterol 4:1:1, 500 mM KCl cis vs 50 mM KCl trans, 10 mM Tris-HCl pH 7.4, 1 mM DTT, room temperature

Ec SspA, sequence (P0ACA3 whole entry): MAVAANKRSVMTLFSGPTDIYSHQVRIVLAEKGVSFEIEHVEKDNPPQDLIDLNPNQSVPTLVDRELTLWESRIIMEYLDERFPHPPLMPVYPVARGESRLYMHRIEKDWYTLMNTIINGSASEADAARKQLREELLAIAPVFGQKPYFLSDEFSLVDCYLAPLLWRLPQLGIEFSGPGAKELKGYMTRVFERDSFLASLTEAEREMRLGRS

CC1(C2CCCC2)Cc2cc(OCC(=O)O)c(Cl)c(Cl)c2C1=O (stereo not shown) [IAA-94]
open probability at 100 μM: 0.1 ± 0.05
